The first assay deals with T1, T7 DNA polymerase (28 amino acid deletion in the exonuclease domain, complexed with thioredoxin), tyrosine at residue 526 (WT) (Escherichia phage T7, UniProt P00581, DEL118-145).
T1 construct: made in house; host or cells: strain that produces E. coli thioredoxin, lac promoter
T1 sequence (P00581 other isoform, or with tags, fused parts or gaps DEL118-145): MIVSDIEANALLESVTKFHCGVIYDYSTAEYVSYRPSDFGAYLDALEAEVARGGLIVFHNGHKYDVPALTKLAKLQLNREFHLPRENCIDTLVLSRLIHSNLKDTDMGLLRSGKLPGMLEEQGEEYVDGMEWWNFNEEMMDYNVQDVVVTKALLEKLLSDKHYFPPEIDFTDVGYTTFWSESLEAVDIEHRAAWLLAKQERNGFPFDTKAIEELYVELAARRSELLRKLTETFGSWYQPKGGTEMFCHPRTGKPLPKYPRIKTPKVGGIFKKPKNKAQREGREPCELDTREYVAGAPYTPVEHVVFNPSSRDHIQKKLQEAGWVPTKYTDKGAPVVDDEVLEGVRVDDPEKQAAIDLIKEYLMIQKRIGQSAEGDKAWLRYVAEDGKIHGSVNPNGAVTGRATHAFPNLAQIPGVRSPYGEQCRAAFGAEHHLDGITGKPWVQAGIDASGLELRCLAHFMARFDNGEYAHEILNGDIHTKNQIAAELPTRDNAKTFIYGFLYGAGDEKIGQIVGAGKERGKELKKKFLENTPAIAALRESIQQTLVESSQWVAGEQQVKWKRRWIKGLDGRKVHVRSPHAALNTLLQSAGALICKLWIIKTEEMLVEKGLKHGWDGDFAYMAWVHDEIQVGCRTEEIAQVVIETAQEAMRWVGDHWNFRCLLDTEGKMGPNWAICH
T1 sequence (P0AA25 2-109, stated change not applied, further chain): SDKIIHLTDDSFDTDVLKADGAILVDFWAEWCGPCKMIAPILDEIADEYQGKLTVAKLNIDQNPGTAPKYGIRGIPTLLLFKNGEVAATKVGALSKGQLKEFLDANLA
Kind of assay: Gel electrophoresis-based rate of incorporation of dideoxynucleotides relative to deoxynucleotides, 1:1 ratio of dNTPs to ddNTPs (Example 6). The format is biochemical, bacteriophage T7. As to conditions: 100 µM 4dNTPs and 100 µM of one ddNTP; 5 mM MgCl2; 37 °C. From the text: The primary application of this test is to determine the absolute ratio of incorporation of a ddNMP to a dNMP for a DNA polymerase that efficiently incorporates dideoxynucleotides, such as T7 DNA polymerase, E. coli DNA polymerase I mutant F762Y or Taq DNA polymerase mutant F667Y. It can also indicate the level of discrimination against ddNTPs of any DNA polymerase; however, for DNA polymerases that discriminate strongly against ddNTPs, such as T7 DNA polymerase mutant Y526F, E. coli DNA polymerase I or Taq DNA polymerase, higher ratios of ddNTP to dNTP are necessary to determine precisely their level of discrimination, which is described in detail in Example 7.
DNA synthesis reactions are carried out on the ^32P-end labeled 40 mer-M 13 mGP1-2 DNA template complex prepared as described in Example 3. Reaction conditions are used that are optimum for the DNA polymerase being tested with regard to buffer, pH, salts, and temperature of the reaction. A concentration of DNA polymerase is chosen whereby most of the primers are extended in a 10 min reaction and are terminated by the incorporation of a dideoxynucleotide. The reaction mixture contains 100 µM 4dNTPs and 100 µM of one of the four ddNTPs.
We used this test to compare the ability of six DNA polymerases to incorporate each of the four ddNMPs. The DNA polymerases tested were (1) T7 DNA polymerase with a 28 amino acid deletion in the exonuclease domain and complexed in a one-to-one ratio with thioredoxin (Tabor and Richardson 264 J. Biol. Chem. 6447, 1989) (referred to here as "T7 DNA polymerase"), (2) The large fragment of E. coli DNA polymerase I, commonly called the Klenow fragment (referred to here as "E. coli DNA polymerase I"), (3) Unmodified DNA polymerase from Thermus aquaticus (referred to here as "Taq DNA polymerase"), (4) T7 DNA polymerase as described above in which the tyrosine at residue 526 has been changed to a phenylalanine (referred to here as "T7 DNA polymerase Y526F"), (5) E. coli DNA polymerase I as described above in which the phenylalanine at residue 762 has been changed to a tyrosine (referred to here as "E. coli DNA polymerase I F762Y"), and (6) Taq DNA polymerase as described above in which the phenylalanine at residue 667 has been changed to a tyrosine (referred to here as "Taq DNA polymerase F667Y").
The reaction mixtures also contained 10 ng of yeast inorganic pyrophosphatase to inhibit pyrophosphorolysis that could otherwise increase the apparent discrimination by the DNA polymerase (Tabor and Richardson 265 j. Biol. Chem. 8322, 1990). The reactions were initiated by the addition of 2 µl of each DNA polymerase, diluted in 20 mM TrisHCl, pH 7.5, 10 mM 2-mercaptoethanol and 0.05% bovine serum albumin to a concentration of approximately 0.025 units/µl. The concentration of each DNA polymerase was sufficient to extend most of the labeled primers by more than 500 nucleotides in the absence of ddNTPs in a 15 min reaction. The reaction mixtures were incubated for 15 min at either 37 °C (T7 DNA polymerase, T7 DNA polymerase Y526F, E. coli DNA polymerase I, and E. coli DNA polymerase F762Y) or 70 °C (Taq DNA polymerase and Taq DNA polymerase F667Y). The reactions were terminated by the addition of 10 µl 90% formamide, 20 mM EDTA, 0.05% bromphenol blue. Each sample was heated at 90°C for 2 min immediately prior to loading 6 µl of each sample onto a gel consisting of 8% polyacrylamide, 0.4% N,N'-methylenebisacrylamide, 7 M urea in 100 mM Trisborate, pH 8.3, 1 mM EDTA. Electrophoresis was at 2000 Volts for 90 min (until the bromphenol blue had just run off the bottom of the gel). After electrophoresis, the gel was dried under vacuum, and autoradiographed. After autoradiography, the distribution of radioactively labeled fragments was determined by Phosphorimager analysis (Molecular Dynamics). […]
Turning to `Nc1ncnc2c1ncn2[C@H]1CC[C@@H](COP(=O)(O)OP(=O)(O)OP(=O)(O)O)O1` [ddATP], the “D, discrimination factor (ratio of the use of a specific dNTP to the use of the comparable ddNTP at equal concentrations)” value is 2.3.

For `Nc1ccn([C@H]2CC[C@@H](COP(=O)(O)OP(=O)(O)OP(=O)(O)O)O2)c(=O)n1` [ddCTP], the “D, discrimination factor (ratio of the use of a specific dNTP to the use of the comparable ddNTP at equal concentrations)” value stood at 2.7.

With `Nc1nc2c(ncn2[C@H]2CC[C@@H](COP(=O)(O)OP(=O)(O)OP(=O)(O)O)O2)c(=O)[nH]1` [ddGTP], the “D, discrimination factor (ratio of the use of a specific dNTP to the use of the comparable ddNTP at equal concentrations)” value is listed as 2.2.

Take `Cc1cn([C@H]2CC[C@@H](COP(=O)(O)OP(=O)(O)OP(=O)(O)O)O2)c(=O)[nH]c1=O` [ddTTP]: the “D, discrimination factor (ratio of the use of a specific dNTP to the use of the comparable ddNTP at equal concentrations)” value is 1.8.

Still in this assay, the particulars now being: stated to be the absolute ratios obtained in Example 6 (1:1 dNTPs to ddNTPs).
In the case of `Nc1ncnc2c1ncn2[C@H]1CC[C@@H](COP(=O)(O)OP(=O)(O)OP(=O)(O)O)O1` [ddATP], the “Incorporation Rate Ratios (dN/ddN)” value came out at 3.3.

As to `Nc1ccn([C@H]2CC[C@@H](COP(=O)(O)OP(=O)(O)OP(=O)(O)O)O2)c(=O)n1` [ddCTP], the “Incorporation Rate Ratios (dN/ddN)” value came out at 3.7.

Turning to `Nc1nc2c(ncn2[C@H]2CC[C@@H](COP(=O)(O)OP(=O)(O)OP(=O)(O)O)O2)c(=O)[nH]1` [ddGTP], the “Incorporation Rate Ratios (dN/ddN)” value was determined as 3.2.

On to `Cc1cn([C@H]2CC[C@@H](COP(=O)(O)OP(=O)(O)OP(=O)(O)O)O2)c(=O)[nH]c1=O` [ddTTP], for which the “Incorporation Rate Ratios (dN/ddN)” value was determined as 2.8.

The values are drawn from patent EP0655506B1 (priority 1994, dated 1995).
